pIC50: −log10 of the molar value. The source made the active and inactive calls. The rule behind the calls is not given here.
Key:
Calu-3 [1] = assay: Antiproliferative activity against human Calu-3 cells assessed as inhibition of cell growth at 20 uM incubated for 48 hrs by CCK-8 assay relative to control; format: functional
HT-29 [2] = assay: Antiproliferative activity against human HT-29 cells assessed as inhibition of cell growth at 20 uM incubated for 48 hrs by CCK-8 assay relative to control; format: functional
DU-145 [3] = assay: Antiproliferative activity against human DU-145 cells assessed as inhibition of cell growth at 20 uM incubated for 48 hrs by CCK-8 assay relative to control; format: functional
DU-145 [4] = assay: Antiproliferative activity against human DU-145 cells assessed as inhibition of cell growth incubated for 48 hrs by CCK-8 assay; format: functional, cell-based; conditions: DU-145, 48 h
HepG2 = assay: Antiproliferative activity against human HepG2 cells assessed as inhibition of cell growth incubated for 48 hrs by CCK-8 assay; format: functional, cell-based; conditions: HepG2, 48 h
HT-29 [5] = assay: Antiproliferative activity against human HT-29 cells assessed as inhibition of cell growth incubated for 48 hrs by CCK-8 assay; format: functional, cell-based; conditions: HT-29, 48 h
Calu-3 [6] = assay: Antiproliferative activity against human Calu-3 cells assessed as inhibition of cell growth incubated for 48 hrs by CCK-8 assay; format: functional, cell-based; conditions: Calu-3, 48 h
A549 = assay: Antiproliferative activity against human A549 cells assessed as inhibition of cell growth incubated for 48 hrs by CCK-8 assay; format: functional, cell-based; conditions: A549, 48 h
MDA-MB-231 = assay: Antiproliferative activity against human MDA-MB-231 cells assessed as inhibition of cell growth incubated for 48 hrs by CCK-8 assay; format: functional, cell-based; conditions: MDA-MB-231, 48 h
AGS = assay: Antiproliferative activity against human AGS cells assessed as inhibition of cell growth incubated for 48 hrs by CCK-8 assay; format: functional, cell-based
PC-3 = assay: Antiproliferative activity against human PC-3 cells assessed as inhibition of cell growth incubated for 48 hrs by CCK-8 assay; format: functional, cell-based; conditions: PC-3, 48 h
MRC5 = assay: Antiproliferative activity against human MRC5 cells assessed as inhibition of cell growth incubated for 48 hrs by CCK-8 assay; format: functional, cell-based; conditions: MRC5, 48 h
SK-N-AS = assay: Antiproliferative activity against human SK-N-AS cells assessed as inhibition of cell growth incubated for 48 hrs by CCK-8 assay; format: functional, cell-based
A-375 = assay: Antiproliferative activity against human A-375 cells assessed as inhibition of cell growth incubated for 48 hrs by CCK-8 assay; format: functional, cell-based; conditions: A-375, 48 h
786-0 = assay: Antiproliferative activity against human 786-0 cells assessed as inhibition of cell growth incubated for 48 hrs by CCK-8 assay; format: functional, cell-based; conditions: 786-0, 48 h
NCI-H1299 = assay: Antiproliferative activity against human NCI-H1299 cells assessed as inhibition of cell growth incubated for 48 hrs by CCK-8 assay; format: functional, cell-based; conditions: NCI-H1299, 48 h
SH-SY5Y = assay: Antiproliferative activity against human SH-SY5Y cells assessed as inhibition of cell growth incubated for 48 hrs by CCK-8 assay; format: functional, cell-based
K562 = assay: Antiproliferative activity against human K562 cells assessed as inhibition of cell growth incubated for 48 hrs by CCK-8 assay; format: functional, cell-based; conditions: K562, 48 h
MCF7 = assay: Antiproliferative activity against human MCF7 cells assessed as inhibition of cell growth incubated for 48 hrs by CCK-8 assay; format: functional, cell-based; conditions: MCF7, 48 h
CWR22R = assay: Antiproliferative activity against human 22Rv1 cells assessed as inhibition of cell growth incubated for 48 hrs by CCK-8 assay; format: functional, cell-based; conditions: 22Rv1, 48 h
VCaP = assay: Antiproliferative activity against human VCaP cells assessed as inhibition of cell growth incubated for 48 hrs by CCK-8 assay; format: functional, cell-based

| Compound | inhibition (Calu-3 [1]) | inhibition at 20 µM (HT-29 [2]) [%] | inhibition at 20 µM (DU-145 [3]) [%] | other results |
| --- | --- | --- | --- | --- |
| COc1cc(C(=O)Nc2ccc(CC(=O)NCCCCCCNc3cccc4c3C(=O)N(C3CCC(=O)NC3=O)C4=O)cc2)ccc1NC(=N)N (configuration not stated) | inactive | 21.1 | 10.5 | – |
| COc1cc(C(=O)Nc2ccc(CC(=O)N3CCC(CN4CCN(c5ccc6c(c5)C(=O)N(C5CCC(=O)NC5=O)C6=O)CC4)CC3)cc2)ccc1NC(=N)N (configuration not stated) | inactive | 37.7 | 14.6 | – |
| COc1cc(C(=O)Nc2ccc(CC(=O)NCCCCCCCC(=O)N[C@H](C(=O)N3C[C@H](O)C[C@H]3C(=O)NCc3ccc(-c4scnc4C)cc3)C(C)(C)C)cc2)ccc1NC(=N)N | inactive | 31.6 | 11.2 | – |
| COc1cc(C(=O)Nc2ccc(CC(=O)NCCCCCCC(=O)N[C@H](C(=O)N3C[C@H](O)C[C@H]3C(=O)NCc3ccc(-c4scnc4C)cc3)C(C)(C)C)cc2)ccc1NC(=N)N | inactive | 31.6 | 8.05 | – |
| N=C(N)Nc1ccc(C(=O)Oc2ccc3cc(C(=N)N)ccc3c2)cc1 [NAFAMOSTAT] | – | – | – | pIC50 (DU-145 [4]): < 4.40; pIC50 (HepG2): < 4.40; pIC50 (HT-29 [5]): < 4.40; pIC50 (Calu-3 [6]): 4.42; pIC50 (A549): < 4.40; pIC50 (MDA-MB-231): < 4.40; pIC50 (AGS): < 4.40; pIC50 (PC-3): 4.40; pIC50 (MRC5): < 4.40; pIC50 (SK-N-AS): < 4.40; pIC50 (A-375): < 4.40; pIC50 (786-0): < 4.40; pIC50 (NCI-H1299): 4.72; pIC50 (SH-SY5Y): 4.43; pIC50 (K562): < 4.40; pIC50 (MCF7): < 4.40; pIC50 (CWR22R): < 4.40; pIC50 (VCaP): < 4.40 |
| Cc1ncsc1-c1ccc(CNC(=O)[C@@H]2C[C@@H](O)CN2C(=O)[C@@H](NC(=O)COCCOCCOCCN2CCN(c3cccc(NC(=O)c4ccc(NC(=N)N)cc4)c3)CC2)C(C)(C)C)cc1 | inactive | 23.8 | 15.3 | – |
| Cc1ncsc1-c1ccc(CNC(=O)[C@@H]2C[C@@H](O)CN2C(=O)[C@@H](NC(=O)CN2CCC(CN3CCN(c4ccc(NC(=O)Cc5ccc(NC(=O)c6ccc(NC(=N)N)cc6)cc5)cc4)CC3)CC2)C(C)(C)C)cc1 | inactive | 25.9 | 5.63 | – |
| COc1cc(C(=O)Nc2ccc(CC(=O)NCCCCCC(=O)Nc3cccc4c3CN(C3CCC(=O)NC3=O)C4=O)cc2)ccc1NC(=N)N (configuration not stated) | inactive | 18.9 | 9.05 | – |
| N=C(N)Nc1ccc(C(=O)Nc2ccc(CC(=O)NCCCCCC(=O)N3CCN(c4ccc5c(c4)C(=O)N(C4CCC(=O)NC4=O)C5=O)CC3)cc2)cc1 (configuration not stated) | inactive | 22.4 | 5.82 | – |
| Cc1ncsc1-c1ccc(CNC(=O)[C@@H]2C[C@@H](O)CN2C(=O)[C@@H](NC(=O)CN2CCN(c3ccc(NC(=O)c4ccc(NC(=N)N)cc4F)cc3)CC2)C(C)(C)C)cc1 | – | 34.4 | 14.4 | inhibition at 20 µM (Calu-3 [1]): 10.3% |
| Cc1ncsc1-c1ccc(CNC(=O)[C@@H]2C[C@@H](O)CN2C(=O)[C@@H](NC(=O)CN2CCC(CN3CCN(c4ccc(NC(=O)c5ccc(NC(=N)N)cc5)cc4)CC3)CC2)C(C)(C)C)cc1 | inactive | 35.5 | 6.8 | – |
| N=C(N)Nc1ccc(C(=O)Nc2ccc(CC(=O)N3CCC(CN4CCN(CCCNc5ccc6c(c5)C(=O)N(C5CCC(=O)NC5=O)C6=O)CC4)CC3)cc2)cc1 (configuration not stated) | – | 37.4 | 16.8 | inhibition at 20 µM (Calu-3 [1]): 5.77% |
| CC(=O)O[C@H]1C(=O)[C@@]2(C)[C@H]([C@H](OC(=O)c3ccccc3)[C@]3(O)C[C@H](OC(=O)[C@H](O)[C@@H](NC(=O)c4ccccc4)c4ccccc4)C(C)=C1C3(C)C)[C@]1(OC(C)=O)CO[C@@H]1C[C@@H]2O [PACLITAXEL] | – | – | – | pIC50 (DU-145 [4]): 8.00; pIC50 (HT-29 [5]): 8.00; pIC50 (Calu-3 [6]): 4.43; pIC50 (MDA-MB-231): 7.22; pIC50 (AGS): 8.00; pIC50 (PC-3): 5.12; pIC50 (MRC5): 6.96; pIC50 (SK-N-AS): 8.00; pIC50 (A-375): 8.00; pIC50 (786-0): 7.10; pIC50 (NCI-H1299): 5.94; pIC50 (SH-SY5Y): 8.00; pIC50 (K562): 8.00; pIC50 (CWR22R): 7.40; pIC50 (VCaP): 5.26 |
| COc1cc(C(=O)Nc2ccc(CC(=O)Nc3ccc(N4CCN(CC5CCN(CC(=O)N[C@H](C(=O)N6C[C@H](O)C[C@H]6C(=O)NCc6ccc(-c7scnc7C)cc6)C(C)(C)C)CC5)CC4)cc3)cc2)ccc1NC(=N)N | – | 18.4 | 5.06 | inhibition at 20 µM (Calu-3 [1]): 5.66% |
| Cc1ncsc1-c1ccc(CNC(=O)[C@@H]2C[C@@H](O)CN2C(=O)[C@@H](NC(=O)COCCOCCOCCN2CCN(c3ccc(NC(=O)c4ccc(NC(=N)N)cc4)cc3)CC2)C(C)(C)C)cc1 | inactive | 14.4 | – | inhibition (DU-145 [3]): inactive |
| Cc1ncsc1-c1ccc(CNC(=O)[C@@H]2C[C@@H](O)CN2C(=O)[C@@H](NC(=O)CN2CCC(CN3CCN(c4ccc(NC(=O)Cc5ccc(NC(=O)c6ccc(NC(=N)N)cc6F)cc5)cc4)CC3)CC2)C(C)(C)C)cc1 | inactive | 37.3 | 5.64 | – |
| Cc1ncsc1-c1ccc(CNC(=O)[C@@H]2C[C@@H](O)CN2C(=O)[C@@H](NC(=O)OCCOCCOCCOCc2cccc(NC(=O)c3ccc(NC(=N)N)cc3)c2)C(C)(C)C)cc1 | inactive | 15.1 | 13.7 | – |
| COc1cc(C(=O)Nc2ccc(CC(=O)NCCCCCC(=O)N[C@H](C(=O)N3C[C@H](O)C[C@H]3C(=O)NCc3ccc(-c4scnc4C)cc3)C(C)(C)C)cc2)ccc1NC(=N)N | inactive | 20.5 | 7.56 | – |
| COc1cc(C(=O)Nc2ccc(CC(=O)NCCCCCC(=O)N3CCN(c4ccc5c(c4)C(=O)N(C4CCC(=O)NC4=O)C5=O)CC3)cc2)ccc1NC(=N)N (configuration not stated) | inactive | 7.56 | 7.04 | – |
| COc1cc(C(=O)Nc2ccc(CC(=O)Nc3ccc(CC(=O)NCCCCCCNc4cccc5c4C(=O)N(C4CCC(=O)NC4=O)C5=O)cc3)cc2)ccc1NC(=N)N (configuration not stated) | inactive | 32.7 | 16.5 | – |
| Cc1ncsc1-c1ccc(CNC(=O)[C@@H]2C[C@@H](O)CN2C(=O)[C@@H](NC(=O)CN2CCN(c3ccc(NC(=O)c4ccc(NC(=N)N)cc4)cc3)CC2)C(C)(C)C)cc1 | inactive | 29.7 | 9.51 | – |
| Cc1ncsc1-c1ccc(CNC(=O)[C@@H]2C[C@@H](O)CN2C(=O)[C@@H](NC(=O)CN2CCC(CN3CCN(c4ccc(NC(=O)c5ccc(NC(=N)N)cc5F)cc4)CC3)CC2)C(C)(C)C)cc1 | – | 91.9 | 56.9 | inhibition at 20 µM (Calu-3 [1]): 47.5%; pIC50 (DU-145 [4]): 4.95; pIC50 (HT-29 [5]): 5.42; pIC50 (Calu-3 [6]): 4.67; pIC50 (A549): 4.46; pIC50 (MRC5): < 4.40 |
| COc1cc(C(=O)Nc2cccc(COCCOCCOCCOC(=O)N[C@H](C(=O)N3C[C@H](O)C[C@H]3C(=O)NCc3ccc(-c4scnc4C)cc3)C(C)(C)C)c2)ccc1NC(=N)N | inactive | 30.1 | 8.88 | – |
| COc1cc(C(=O)Nc2ccc(N3CCN(CC(=O)N[C@H](C(=O)N4C[C@H](O)C[C@H]4C(=O)NCc4ccc(-c5scnc5C)cc4)C(C)(C)C)CC3)cc2)ccc1NC(=N)N | inactive | 30.7 | 6.76 | – |
| COc1cc(C(=O)Nc2ccc(N3CCN(CC4CCN(CC(=O)N[C@H](C(=O)N5C[C@H](O)C[C@H]5C(=O)NCc5ccc(-c6scnc6C)cc5)C(C)(C)C)CC4)CC3)cc2)ccc1NC(=N)N | inactive | 42.3 | – | inhibition (DU-145 [3]): inactive |
